{"source": "patent US11400063B2", "about": "“Early administration of low-dose colchicine after myocardial infarction” (INSTITUT DE CARDIOLOGIE DE MONTREAL, priority 2019, dated 2022)", "key": {"[1]": {"test_system": "patients recruited within 30 days after a myocardial infarction", "assay": "COLCOT safety and adverse events (safety population)", "type": "in vivo, human", "method": "All serious adverse events were recorded. The only other adverse events recorded were those that were considered to be related to the gastrointestinal system, events that were judged by the investigator to be related to colchicine or placebo, or laboratory abnormalities that had been judged by the investigator to be clinically significant."}, "[2]": {"test_system": "patients with CAD", "assay": "Meta-analysis of RCTs of colchicine for secondary cardiovascular prevention (pooled)", "type": "in vivo, human", "method": "Medline (PUBMED), EMBASE, and Cochrane central were searched to identify RCTs comparing colchicine to placebo or no colchicine for secondary cardiovascular prevention (inception to Sep. 1, 2020). To maximized sensitivity, citation chasing was performed in Google Scholar, Scopus, and Web of Science. Secondary prevention was defined as patients with clinically manifest or established CAD. Query terms included “colchicine”, “coronary artery disease”, “acute coronary syndrome”, “myocardial infarction”, “cardiovascular disease”, “atherosclerosis”, and “secondary prevention”, either separately or in combination.\nRCTs that met the following criteria were included in the meta-analysis: 1) compared daily use of low-dose (0.5 mg) colchicine to placebo or no colchicine for secondary cardiovascular prevention; 2) the study reported at least one of the following outcomes: cardiovascular death, MI, stroke, cardiac arrest, or urgent coronary revascularization; 3) other than the trial medication, patients in both arms were treated in accordance to guideline directed medical therapy; 4) the minimum follow-up was at least 1 year; and 5) trials were published in a peer-reviewed scientific journal. Review articles, editorials, meta-analyses, observational studies, and published abstracts were excluded from the present meta-analysis.\nUsing standardized forms, data on study characteristics, patient characteristics, and outcomes were extracted on the intent-to-treat population independently by two reviewers from each eligible study. The Cochrane Collaboration risk-of-bias tool for randomized trials was used to evaluate study quality. The meta-analysis was conducted in accordance to the Preferred Reporting Items for Systematic Reviews and Meta-Analyses (PRISMA) guidelines.\nThe primary efficacy endpoint was a composite of cardiovascular death, MI, ischemic stroke, and urgent coronary revascularization. Secondary efficacy endpoints consisted of the components of the primary endpoint, composite of cardiovascular death, MI, and ischemic stroke, as well as deep vein thrombosis or pulmonary embolus, and atrial fibrillation (AF). To maximize consistency in pooling efficacy endpoints among trials, the primary and secondary composite efficacy and stroke endpoints in COLCOT were modified to meet the definition of primary and stroke endpoints of the LoDoCo2 trial. Therefore, adjudicated events of resuscitated cardiac arrest and non-ischemic stroke in COLCOT were excluded from the pooled primary endpoint. The component endpoint of stroke was also restricted to include only ischemic strokes. Incidence rates and hazards ratios (HRs) were calculated for the new primary composite endpoint and ischemic stroke endpoint using individual patient data from COLCOT.\nSafety outcomes were limited to serious adverse events (SAEs) and included all-cause and non-cardiovascular mortality, hospitalization for gastrointestinal event, infection, and pneumonia, as well as diagnosis of cancer. Incidence of SAEs were recalculated for COLCOT using the intent-to-treat population.\nThe DerSimonian and Laird random-effects model was used to calculate the pooled HR and corresponding 95% confidence intervals (CI) for primary and secondary endpoints in the overall trial and in subgroup analyses of the primary endpoint. For safety outcomes, the DerSimonian and Laird random-effects model was used to compute risk ratios (RR) and corresponding 95% CIs. Heterogeneity was evaluated with the Higgins I^2 statistic. I^2 values of <25%, 25-75%, and >75% were considered to indicate low, moderate, and high degrees of heterogeneity, respectively. In subgroup analyses, the Qb statistic was calculated to determine inconsistency and variability in the treatment effect between strata. Publication and small study bias were assessed with the Egger's regression test and visually by asymmetry in funnel plots. […]"}, "[3]": {"details": "safety population, listed as colchicine"}, "[4]": {"details": "colchicine vs placebo or no colchicine"}}}
{"smiles": "COc1cc2c(c(OC)c1OC)-c1ccc(OC)c(=O)cc1[C@@H](NC(C)=O)CC2", "note": "[Colchicine, colchicine]", "values": [{"measurement": "trial regimen discontinued, % of patients", "setting": "[1]; at the end of the trial", "result": 18.4, "unit": "%"}, {"measurement": "incidence of septic shock", "setting": "[1]; in contrast to canakinumab", "result": "did not increase"}, {"measurement": "Anemia, number of patients", "setting": "[1]; safety population", "result": 14, "unit": "number"}, {"measurement": "Anemia, percent of patients", "setting": "[1]; safety population", "result": "(0.6) percent"}, {"measurement": "Any related adverse event, percent of patients", "setting": "[1]; safety population", "result": "(16.0) percent"}, {"measurement": "Any serious adverse event, number of patients", "setting": "[1]; safety population", "result": 383, "unit": "number"}, {"measurement": "Any serious adverse event, percent of patients", "setting": "[1]; safety population", "result": "(16.4) percent"}, {"measurement": "Cancer, number of patients", "setting": "[1]; safety population", "result": 43, "unit": "number"}, {"measurement": "Cancer, percent of patients", "setting": "[1]; safety population", "result": "(1.8) percent"}, {"measurement": "Diarrhea adverse event, number of patients", "setting": "[1]; safety population", "result": 225, "unit": "number"}, {"measurement": "Diarrhea adverse event, percent of patients", "setting": "[1]; safety population", "result": "(9.7) percent"}, {"measurement": "Flatulence adverse event, number of patients", "setting": "[1]; safety population", "result": 15, "unit": "number"}, {"measurement": "Flatulence adverse event, percent of patients", "setting": "[1]; safety population", "result": "(0.6) percent"}, {"measurement": "Gastrointestinal adverse event, number of patients", "setting": "[1]; safety population", "result": 408, "unit": "number"}, {"measurement": "Gastrointestinal adverse event, percent of patients", "setting": "[1]; safety population", "result": "(17.5) percent"}, {"measurement": "Gastrointestinal hemorrhage, number of patients", "setting": "[1]; safety population", "result": 7, "unit": "number"}, {"measurement": "Gastrointestinal hemorrhage, percent of patients", "setting": "[1]; safety population", "result": "(0.3) percent"}, {"measurement": "Gastrointestinal serious adverse event, number of patients", "setting": "[1]; safety population", "result": 46, "unit": "number"}, {"measurement": "Gastrointestinal serious adverse event, percent of patients", "setting": "[1]; safety population", "result": "(2.0 ) percent"}, {"measurement": "Hospitalization for heart failure, number of patients", "setting": "[1]; safety population", "result": 25, "unit": "number"}, {"measurement": "Hospitalization for heart failure, percent of patients", "setting": "[1]; safety population", "result": "(1.1) percent"}, {"measurement": "Infection serious adverse event, number of patients", "setting": "[1]; safety population", "result": 51, "unit": "number"}, {"measurement": "Infection serious adverse event, percent of patients", "setting": "[1]; safety population", "result": "(2.2) percent"}, {"measurement": "Leukopenia, number of patients", "setting": "[1]; safety population", "result": 2, "unit": "number"}, {"measurement": "Leukopenia, percent of patients", "setting": "[1]; safety population", "result": "(0.1) percent"}, {"measurement": "Nausea adverse event, number of patients", "setting": "[1]; safety population", "result": 43, "unit": "number"}, {"measurement": "Nausea adverse event, percent of patients", "setting": "[1]; safety population", "result": "(1.8) percent"}, {"measurement": "Pneumonia serious adverse event, number of patients", "setting": "[1]; safety population", "result": 21, "unit": "number"}, {"measurement": "Pneumonia serious adverse event, percent of patients", "setting": "[1]; safety population", "result": "(0.9) percent"}, {"measurement": "Septic shock serious adverse event, number of patients", "setting": "[1]; safety population", "result": 2, "unit": "number"}, {"measurement": "Septic shock serious adverse event, percent of patients", "setting": "[1]; safety population", "result": "(0.1) percent"}, {"measurement": "Thrombocytopenia, number of patients", "setting": "[1]; safety population", "result": 3, "unit": "number"}, {"measurement": "Thrombocytopenia, percent of patients", "setting": "[1]; safety population", "result": "(0.1) percent"}, {"measurement": "Any related adverse event, number of patients", "setting": "[1]; safety population, N = 2330", "result": 372, "unit": "number"}, {"measurement": "Any related adverse event, percent of patients", "setting": "[1]; [3]", "result": 16.0, "unit": "%"}, {"measurement": "Any serious adverse event, percent of patients", "setting": "[1]; [3]", "result": 16.4, "unit": "%"}, {"measurement": "Diarrhea adverse event, percent of patients", "setting": "[1]; [3]", "result": 9.7, "unit": "%"}, {"measurement": "Gastrointestinal adverse event, percent of patients", "setting": "[1]; [3]", "result": 17.5, "unit": "%"}, {"measurement": "Infection serious adverse event, percent of patients", "setting": "[1]; [3]", "result": 2.2, "unit": "%"}, {"measurement": "Nausea adverse event, percent of patients", "setting": "[1]; [3]", "result": 1.8, "unit": "%"}, {"measurement": "Pneumonia serious adverse event, percent of patients", "setting": "[1]; [3]", "result": 0.9, "unit": "%"}, {"measurement": "serious adverse event of myopathy linked to colchicine", "setting": "[1]; statins used in 99% of trial participants", "result": "no serious adverse event"}, {"measurement": "AF diagnoses and AF episodes, pooled HR", "setting": "[2]; [4]", "result": 0.86}, {"measurement": "MIs, pooled HR", "setting": "[2]; [4]", "result": 0.62}, {"measurement": "all-cause mortality, pooled RR", "setting": "[2]; [4]", "result": 1.04}, {"measurement": "ischemic strokes, pooled HR", "setting": "[2]; [4]", "result": 0.38}, {"measurement": "non-cardiovascular mortality, pooled RR", "setting": "[2]; [4]", "result": 1.38}, {"measurement": "urgent coronary revascularization, pooled HR", "setting": "[2]; [4]", "result": 0.58}, {"measurement": "primary composite endpoint (cardiovascular mortality, MI, ischemic stroke, urgent coronary revascularization), pooled HR", "setting": "[2]; colchicine vs placebo or no colchicine, random-effects model", "result": 0.68}, {"measurement": "cardiovascular mortality, difference between arms", "setting": "[2]; pooled RCTs", "result": "no statistically significant difference"}, {"measurement": "reduction in the incidence of major cardiovascular events", "setting": "[2]; pooled RCTs", "result": 32, "unit": "%"}, {"measurement": "risk reduction for MIs", "setting": "[2]; pooling HRs from the RCTs", "result": 38, "unit": "%"}, {"measurement": "risk reduction for ischemic strokes", "setting": "[2]; pooling HRs from the RCTs", "result": 62, "unit": "%"}, {"measurement": "risk reduction for urgent coronary revascularization", "setting": "[2]; pooling HRs from the RCTs", "result": 44, "unit": "%"}]}
